Structures can show the parent of a compound that is named as a salt.
What follows are compounds tested against MAPKAPK2 (MK-2) (Homo sapiens, UniProt P49137) (assay: Determination of MK-2 IC50 (HSP-peptide phosphorylation, anion exchange resin capture assay)). Conditions: MK-2 Avg. IC50.
MAPKAPK2 (MK-2), sequence (P49137 whole entry, species assumed): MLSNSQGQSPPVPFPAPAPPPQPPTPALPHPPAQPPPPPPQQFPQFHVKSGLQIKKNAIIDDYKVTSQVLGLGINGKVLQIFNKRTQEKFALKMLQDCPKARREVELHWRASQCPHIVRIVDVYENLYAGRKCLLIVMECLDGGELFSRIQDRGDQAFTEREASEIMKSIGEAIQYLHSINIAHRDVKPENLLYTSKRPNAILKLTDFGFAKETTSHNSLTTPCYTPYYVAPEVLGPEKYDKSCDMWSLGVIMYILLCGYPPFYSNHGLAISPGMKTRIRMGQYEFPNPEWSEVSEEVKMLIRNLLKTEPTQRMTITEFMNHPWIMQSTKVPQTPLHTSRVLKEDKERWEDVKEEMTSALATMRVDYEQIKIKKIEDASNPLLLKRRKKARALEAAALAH
Type: biochemical
Experimental: Determination of MK-2 IC50:
Recombinant MAPKAPK2 was phosphorylated at a concentration of 42-78 μM by incubation with 0.23 μM of active p38α in 50 mM HEPES, 0.1 mM EDTA, 10 mM magnesium acetate, and 0.25 mM ATP, pH 7.5 for one hour at 30° C.
The phosphorylation of HSP-peptide ([…]) by MAPKAPK2 was measured using an anion exchange resin capture assay method. The reaction was carried out in 50 mM β-glycerolphosphate, 0.04% BSA, 10 mM magnesium acetate, 2% DMSO and 0.8 mM dithiotheritol, pH 7.5 in the presence of the HSP-peptide with 0.2 μCi [γ^33P]ATP and 0.03 mM ATP. The reaction was initiated by the addition of 15 nM MAPKAPK2 and was allowed to incubate at 30° C. for 30 min. The reaction was terminated and [γ^33P]ATP was removed from solution by the addition of 150 μl of AG 1×8 ion exchange resin in 900 mM sodium formate pH 3.0. A 50 μl aliquot of head volume was removed from the quenched reaction mixture and added to a 96-well plate, 150 μl of Microscint-40 (Packard) was added and the amount of phosphorylated-peptide was determined. Allow the Microscint to sit in the plates for 60 minutes prior to counting.
Compounds are evaluated as potential inhibitors of the MK-2 kinase by measuring their effects on MK-2 phosphorylation of the peptide substrate. Compounds may be screened initially at two concentrations prior to determination of IC50 values. Screening results are expressed as percent inhibition at the concentrations of compound tested. For IC50 value determinations, Compounds are tested at six concentrations in ten-fold serial dilutions with each concentration tested in triplicate. Results are expressed as IC50 values in micromolar. The assay is performed at a final concentration of 2% DMSO.
Compound `ON=C1CCCn2nc3c(c21)CCc1cnccc1-3` [Example 263] has an IC50 of 131 µM.

Same assay, conditions: Table 1, phenoxypyrazole MK-2 inhibitors; read-out: MK-2 Avg, IC50
For `COc1cc2c(cc1-c1cccc(Cl)c1)-c1nn(CCCNC(=O)OC(C)(C)C)c(C(=O)O)c1CC2` [Example 50], the IC50 was 104 µM. `O=C1NCCCn2nc3c(c21)CCc1cc(O)ccc1-3` [Example 18] gave an IC50 of 17 µM. With `COC(=O)c1[nH]nc2c1CCc1cc(O)c(S(=O)(=O)N(C)C)cc1-2` [Example 47] the IC50 was 92.8 µM. `COC(=O)c1c2c(nn1CCCNC(=O)OC(C)(C)C)-c1cc(-c3cccc(Cl)c3)c(OC)cc1CC2` [Example 131] showed an IC50 greater than 200 µM.

Same assay, conditions: Table 2, pyrazolylpyrazole MK-2 inhibitors; read-out: MK-2 Avg. IC50
For `CCOC(=O)c1[nH]nc2c1CCc1[nH]nc(SC)c1-2` [Example 65], the IC50 was no less than 200 µM. `CCOC(=O)c1[nH]nc2c1CCc1[nH]nc(SCc3ccccc3)c1-2` [Example 61] was tested, and the IC50 was no less than 200 µM. Work on `CCOC(=O)c1[nH]nc2c1CCc1[nH]nc([S+](C)[O-])c1-2` (stereo not shown) [Example 63] yielded an IC50 of no less than 200 µM. Work on `CS(=O)(=O)c1n[nH]c2c1-c1n[nH]c(C(N)=O)c1CC2` [Example 58] yielded an IC50 of no less than 200 µM. In the case of `C[S+]([O-])c1n[nH]c2c1-c1n[nH]c(C(=O)O)c1CC2` (stereo not shown) [Example 62], the IC50 is reported as no less than 200 µM. Compound `CSc1n[nH]c2c1-c1n[nH]c(C(N)=O)c1CC2` [Example 18] has an IC50 of 30.3 µM. `O=C(O)c1[nH]nc2c1CCc1[nH]nc(SCc3ccccc3)c1-2` [Example 60] showed an IC50 of no less than 200 µM. `NC(=O)Cn1nc(C(N)=O)c2c1-c1cn[nH]c1CC2` [Example 57] was tested, and the IC50 was no less than 200 µM.

Same assay, conditions: Table 4, pyrimidylpyrazole MK-2 inhibitors; read-out: MK-2 Avg. IC50
`O=C1NCCCn2nc3c(c21)CCc1cnc(-c2cnc4ccccc4c2)nc1-3` [Example 4] was tested, and the IC50 was 1.47 µM. In the case of `O=C(O)c1c2c(nn1CCCNC(c1ccccc1)(c1ccccc1)c1ccccc1)-c1nc(-c3ccccc3)ncc1CC2` [Example 10], the IC50 is reported as 52.2 µM. `COC(=O)c1c2c(nn1CCCN)-c1nc(-c3ccncc3)ncc1CC2` [Example 12] showed an IC50 of 142 µM. With `O=C1NCCCn2nc3c(c21)CCc1cnc(-c2ccncc2)nc1-3` [Example 9] the IC50 was 8.62 µM.

Same assay, conditions: Table 5, other cyclic pyrazole MK-2 inhibiting compounds; read-out: MK-2 Avg. IC50
In the case of `O=C1NCCn2nc3c(c21)CCc1cnc(/C=C/c2ccc(O)cc2)cc1-3` [Example 3], the IC50 is reported as 0.164 µM. `O=C1NCCn2nc3c(c21)CCc1cnc(/C=C/c2ccccc2)cc1-3` [Example 2] gave an IC50 of 0.147 µM.

Same assay, conditions: read-out: MK-2 Avg. IC50
Work on `NC(=O)C1Cn2nc3c(c2C(=O)N1)CCc1cnc(-c2cnc4ccccc4c2)cc1-3` (stereo not shown) [Example 195] yielded an IC50 of 27.9 µM. Compound `O=C(O)c1c2c(nn1CCCNCCN1CCCC1)-c1ccncc1CC2` [Example 174] has an IC50 of 14.6 µM. `O=C(NCCCn1nc2c(c1C(=O)O)CCc1cnccc1-2)c1ccccn1` [Example 261] was tested, and the IC50 was 129 µM. For `O=C1NCCn2nc3c(c21)CCc1cnc(N2CCCC2)cc1-3` [Example 189], the IC50 was 21.6 µM. Compound `CC(C)(C)CCc1cc2c(cn1)CCc1c-2nn2c1C(=O)NCC2` [Example 202] has an IC50 of 35.6 µM. For `C=CCn1nc2c(c1C(=O)O)CCc1c[n+]([O-])ccc1-2` [Example 230], the IC50 was 75.4 µM. In the case of `N#Cc1cccc(NC(=O)NCCCn2nc3c(c2C(=O)O)CCc2cnccc2-3)c1` [Example 184], the IC50 is reported as 17.9 µM. For `NC(=O)NCCCn1nc2c(c1C(=O)O)CCc1cnccc1-2` [Example 192], the IC50 was 25.3 µM. `NC(=O)C1CCN(CCCn2nc3c(c2C(=O)O)CCc2cnccc2-3)CC1` [Example 210] was tested, and the IC50 was 47.9 µM. Work on `CNC(=O)c1[nH]nc2c1CCc1cnccc1-2` [Example 265] yielded an IC50 of 135 µM. Work on `COC(=O)c1c2c(nn1CCO)-c1ccncc1CC2` [Example 271, hydrochloride] yielded an IC50 of 161 µM. `O=C(O)c1c2c(nn1CCCBr)-c1ccncc1CC2` [Example 188] gave an IC50 of 21.5 µM. `c1ccc2ncc(-c3cc4c(cn3)CCc3c[nH]nc3-4)cc2c1` [Example 212] showed an IC50 of 52 µM. Work on `NCCCNC(=O)c1[nH]nc2c1CCc1cnccc1-2` [Example 278] yielded an IC50 of 189 µM. `O=C(NCCCn1nc2c(c1C(=O)O)CCc1cnccc1-2)c1ccncc1` [Example 253] showed an IC50 of 109 µM. `FC(F)c1[nH]nc2c1CCc1cnccc1-2` [Example 244] gave an IC50 of 96.5 µM. `CCCCOc1ccc(S(=O)(=O)NCCCn2nc3c(c2C(=O)O)CCc2cnccc2-3)cc1` [Example 255] was tested, and the IC50 was 113 µM. In the case of `O=C(NCCCn1nc2c(c1C(=O)O)CCc1cnccc1-2)NCc1ccccc1` [Example 176], the IC50 is reported as 15.4 µM. With `C=CCn1nc2c(c1C(=O)O)CCc1cnccc1-2` [Example 170] the IC50 was 12.6 µM. Work on `NCCCN1CCn2nc3c(c2C1=O)CCc1cnccc1-3` [Example 216] yielded an IC50 of 54.8 µM. In the case of `O=C(O)c1c2c(nn1CCCNCc1cccc(Cl)c1)-c1ccncc1CC2` [Example 161], the IC50 is reported as 10.3 µM. With `O=C(O)c1c2c(nn1CCCNCCc1c[nH]c3ccccc13)-c1ccncc1CC2` [Example 165] the IC50 was 10.7 µM. For `O=C(O)c1c2c(nn1CCCNCC(F)(F)F)-c1ccncc1CC2` [Example 218], the IC50 was 56.3 µM. `Cc1ccc(C(C)CCN(CCCn2nc3c(c2C(=O)O)CCc2cnccc2-3)CCC(C)c2ccc(C)o2)o1` (stereo not shown) [Example 241] gave an IC50 of 87.9 µM. For `O=C1NCCn2nc3c(c21)CCc1cnc(-c2cccc4ncccc24)cc1-3` [Example 246], the IC50 was 98.3 µM. In the case of `Cn1nc2c(c1C(=O)O)CCc1cnccc1-2` [Example 231], the IC50 is reported as 76.6 µM. In the case of `NCC1Cn2nc3c(c2C(=O)O1)CCc1cnccc1-3` (stereo not shown) [Example 185], the IC50 is reported as 19.4 µM. With `O=C1NCCn2nc3c(c21)CCc1cnc(CCc2ccc(Cl)cc2)cc1-3` [Example 223] the IC50 was 63.2 µM. Compound `NCCCn1nc(-c2nnn[nH]2)c2c1-c1ccncc1CC2` [Example 247] has an IC50 of 100 µM. Compound `O=C(O)c1c2c(nn1CC=NO)-c1ccncc1CC2` [Example 235] has an IC50 of 84.3 µM. For `O=C1c2c3c(nn2CC2CCCN1C2)-c1ccncc1CC3` (stereo not shown) [Example 281], the IC50 was 191 µM. `O=C1NCCn2nc3c(c21)CCc1cnc(-c2ccc(Oc4ccccc4)cc2)cc1-3` [Example 257] showed an IC50 of 119 µM. In the case of `O=C(NCCCn1nc2c(c1C(=O)O)CCc1cnccc1-2)c1ccco1` [Example 279], the IC50 is reported as 190 µM. Work on `O=C(CO)NCCn1nc2c(c1C(=O)O)CCc1cnccc1-2` [Example 181] yielded an IC50 of 17.4 µM. `O=C(NCCCn1nc2c(c1C(=O)O)CCc1cnccc1-2)c1ccccc1` [Example 227] was tested, and the IC50 was 68 µM. `COc1ccc(CC(=O)NCCCn2nc3c(c2C(=O)O)CCc2cnccc2-3)cc1` [Example 198] gave an IC50 of 30.1 µM. In the case of `O=C(NCCCn1nc2c(c1C(=O)O)CCc1cnccc1-2)c1cccnc1` [Example 162], the IC50 is reported as 10.4 µM. For `N#CCCCn1nc2c(c1C(=O)O)CCc1cnccc1-2` [Example 183], the IC50 was 17.9 µM. `O=C1NCCn2nc3c(c21)CCc1cnc(N2CCOCC2)cc1-3` [Example 168] gave an IC50 of 11.9 µM. `NCCCn1nc2c(c1C(=O)O)CCc1c-2ccnc1-c1ccccc1` [Example 239] showed an IC50 of 87.6 µM. With `NC(=O)c1[nH]nc2c1CCc1cnccc1-2` [Example 163] the IC50 was 10.4 µM. For `O=C1CCCn2nc3c(c21)CCc1cnccc1-3` [Example 219], the IC50 was 59.5 µM. In the case of `O=C(O)c1c2c(nn1CCCNc1cccnc1)-c1ccncc1CC2` [Example 208], the IC50 is reported as 39.4 µM. `CCOC(=O)NC(=O)NCCCn1nc2c(c1C(=O)O)CCc1cnccc1-2` [Example 209] showed an IC50 of 42.5 µM. `CN1CCn2nc3c(c2C1=O)CCc1cnccc1-3` [Example 270] showed an IC50 of 156 µM. `Cc1ccc(S(=O)(=O)NC(=O)NCCCn2nc3c(c2C(=O)O)CCc2cnccc2-3)cc1` [Example 233] gave an IC50 of 80.6 µM. `O=S(=O)(Cc1ccc(Cl)cc1)NC1CCCn2nc3c(c21)CCc1cnccc1-3` (stereo not shown) [Example 232] was tested, and the IC50 was 78.7 µM. For `CC(C)(C)OC(=O)NCCCn1nc2c(c1C(=O)O)CCc1cnc(Cl)cc1-2` [Example 254], the IC50 was 112 µM.

— patent US20040127492A1 (Pharmacia Corporation, priority 2002, published 2004)
